Assay results as given in US20110236406A1, “IMMUNOGENIC COMPOSITIONS COMPRISING HMGB1 POLYPEPTIDES” (MedImmune, LLC, priority 2004, published 2011).
“Also recorded” adds a separate entry of the source. Values belong to the substance of their own block, whether it stands above or below them. No end group written: not given here. *: point of attachment. Biotin = O=C1N[C@H]2[C@H](CS[C@H]2CCCCC(=O)*)N1

Experiments:
murine BM-DCs [1] = assay: Cytokine and chemokine secretion by murine bone marrow-derived DCs (ELISA); type: cell-based, mouse; parameters: key to TNFα / IL-18 / IL-8 / IL-10 / IL-2 / IL-1β / IL-5 / IL-6 / IL-12: + indicates increase; − indicates no change compared to medium; conditions: for IL-1β / IL-2 / IL-5 / IL-6 / IL-8 / IL-10 / IL-12 / IL-18 / TNFα: Murine DC, ELISA 48 h after exposure, compared to medium
Procedure: (§1) Bone marrow-derived DCs (BM-DC) were generated using modifications of the original method described by Inaba et al (42). In brief, bone marrow suspensions were incubated with red cell lysis buffer (PUREGENE™ RBC Lysis Solution, Gentra Systems, Minneapolis, Minn.) to remove red blood cells. After washing in media, lymphocytes and Ia-positive cells were killed with a cocktail of mAbs and rabbit complement for 60 min at 37° C. The mAbs were GK1.5 anti-CD4, TIB211 anti-CD8, TIB 120 anti-Ia, and TM 146 anti B220 (The Abs were kindly provided by Dr. Ralph Steinman). The cells were subsequently cultured in media containing 5% FCS and 10 ng/ml recombinant mouse GM-CSF (R&D Systems; Minneapolis, Minn.) for 7 days. For some experiments the cells were further purified at day 7 using CD11c^+-microbeads (Miltenyi Biotech., Auburn, Calif.) according to the manufacturer's instructions.
(§2) At day 7 of culture, immature DCs were either left untreated, or were stimulated with indicated doses of HMGB1-Bx, HMGB1 peptides, or LPS (E. coli serotype 026:B6, Sigma). In all experiments, DCs were analyzed 48 h after stimulation.
(§3) 48 h post activation, the production of cytokines and chemokines in cell culture supernatants was measured by ELISA (Pierce Boston Technology Center, SearchLight™ Proteome Arrays Multiplex Sample Testing Services, Woburn, Mass.).

allogeneic T cells = assay: Mixed leukocyte reaction, stimulated murine BM-DCs with allogeneic T cells; type: cell-based, mouse; conditions: BM-DCs from C57/BL6 mice; HMGB1-Bx 50 μg/ml, peptides 200 μg/ml, 48 h; 5-day co-culture
Procedure: T cells were isolated by negative selection using the mouse SpinSep antibody cocktail from StemCell Technologies (Vancouver, Calif.) according to the manufacturer's instructions. The cell purity of the isolated T cells was routinely ˜99% pure.
To assess levels of T cell activation and proliferation, cells were plated at 10^5 cells per well in a round-bottomed 96-well tray at DC:T cell ratios of 1:120 for 5 days in medium described above. The microcultures were pulsed with (^3H)-thymidine (1 μCi/well) for the final 8 h of culture. Cell cultures were harvested onto glass fiber filters with an automated multiple sample harvester and the amount of isotope incorporation was determined by liquid scintillation β-emission. Responses are reported as mean cpm of thymidine incorporation by triplicate cultures (+/−SEM).

murine BM-DCs [2] = assay: Phenotypic maturation of murine BM-DCs (surface markers, FACS); type: cell-based, mouse; conditions: CD11c+ gated BM-DCs, 48 h; HMGB1-Bx 50 μg/ml, peptides 200 μg/ml
Procedure: as §1, §2
1×10^4 DCs were reacted for at least 20 min at 4° C. in 100 μl of PBS/5% FCS/0.1% sodium azide (staining buffer) with fluorescein isothiocyanate (FITC)-conjugated IgG mAb specific for CD86, CD40 and MHC-II (eBioscience). Cells were then washed 4 times with staining buffer, fixed in 10% formaldehyde in PBS (pH 7.2-7.4) and examined by flow cytometry using a FACScan (BD). In all experiments, isotype controls were included using FITC-conjugated irrelevant mAb of the same Ig class.

[3] = system: human monocyte-derived DCs; assay: Cytokine and chemokine secretion by human immature monocyte-derived DCs (ELISA); type: cell-based; parameters: key to TNFα / IL-18 / IL-8 / IL-10 / IL-6 / IL-12: + indicates increase; − indicates no change compared to medium; conditions: for IL-6 / IL-8 / IL-10 / IL-12 / IL-18 / TNFα: HUMAN DC, ELISA 48 h after exposure, compared to medium; for secretion of IL-6 / secretion of IL-8 / secretion of IL-12 (p70) / secretion of IL-18 / secretion of TNF-α: HMGB1-Bx 50 μg/ml, polymyxin B; for secretion of IL-6: FIG. 8A, 8B; for secretion of IL-8 / secretion of IL-12 (p70) / secretion of IL-18 / secretion of TNF-α: FIG. 8C
Procedure: (§4) PBMCs were isolated from the blood of normal volunteers (Long Island Blood Services, Melville, N.Y.) over a Ficoll-Hypaque (Amersham Biosciences, Uppsala, Sweden) density gradient. CD14^+ monocytes were isolated from PBMCs by positive selection using anti-CD14 beads (Miltenyi Biotech., Auburn, Calif.) following the manufacturer's instructions. To generate DCs, CD14^+ cells were cultured in RPMI 1640 medium supplemented with 2 mM L-glutamine (GIBCO-BRL Life Technologies; Grand Island, N.Y.), 50 μM 2-mercaptoethanol (Sigma, St. Louis, Mo.), 10 mM HEPES (GIBCO-BRL), penicillin (100 U/ml)-streptomycin (100 μg/ml) (GIBCO-BRL), and 5% human AB serum (Gemini Bio-Products, Woodland, Calif.). Cultures were maintained for 7 days in 6-well trays (3×10^6 cells/well) supplemented with 1000 U GM-CSF per ml (Immunex, Seattle, Wash.) and 200 U IL-4 per ml (R&D Systems; Minneapolis, Minn.) at days 0, 2, 4 and 6.
(§5) At day 7 of culture, immature DCs were either left untreated (“immature”, IM), or were stimulated with indicated doses of (i) LPS (E. coli serotype 026:B6, Sigma), (ii) 500 ng/ml of trimeric CD40L (Alexis Biochemicals; San Diego, Calif.), (iii) a cocktail of cytokines (CyC) consisting of IL-6 at 1000 U/ml, TNFα at 10 ng/ml, IL-1β at 10 ng/ml (all from R&D Systems) and prostaglandin E2 (PGE-2) at 1 μg/ml (Sigma), or with (v) non-methylated CpG oligonucleotides (5′ […] 3′) at 30 μg/ml. The sequence of this oligonucleotide is known to induce DC maturation (4), except that it contains an unmodified phosphodiester backbone. In all experiments, DCs were analyzed 48 h after stimulation. All experiments using the rB box were performed in the presence of polymyxin B sufficient to neutralize greater than 10-fold more LPS than present in rB box preparations.
as §3
as §4, with “DCs, CD 14^+” for “DCs, CD14^+”
as §2

immature DCs = assay: Phenotypic maturation of human DCs (surface markers, FACS); type: cell-based; conditions: 48 h, rHMGB1 0.1-10.0 μg/ml
Procedure: as §4, §5
1×10^4 DCs were reacted for at least 20 min at 4° C. in 100 μl of PBS/5% FCS/0.1% sodium azide (staining buffer) with phycoerythrin (PE)-conjugated IgG specific for CD206, CD54, HLA-DR (all from Beckton Dickinson Immunostaining Systems; San Jose. Calif.) and CD83 (Immunotech-Beckman-Coulter; Marseille, France) or fluorescein isothiocyanate (FITC)-conjugated IgG mAb specific for CD80, CD40 and CD58 (all from Beckton Dickinson Immunostaining Systems; San Jose. Calif.). Cells were then washed 4 times with staining buffer, fixed in 10% formaldehyde in PBS (pH 7.2-7.4) and examined by flow cytometry using a FACScan (BD). In all experiments, isotype controls were included using an appropriate PE- or FITC-conjugated irrelevant mAb of the same Ig class.

[4] = peptides 200 μg/ml, HMGB1-Bx 50 μg/ml, polymyxin B, 48 h
[5] = peptides 200 μg/ml, polymyxin B, 48 h
[6] = Example 2, peptides 200 μg/ml, 48 h

Substance: YAFFVQTCREEHKKKHPD (Biotin-YAFFVQTCREEHKKKHPD; listed as Homo sapiens) [Hp-16]
IL-1β (murine BM-DCs [1]): + | IL-2 (murine BM-DCs [1]): + | IL-5 (murine BM-DCs [1]): + | IL-6 (murine BM-DCs [1]): − | IL-8 (murine BM-DCs [1]): − | IL-10 (murine BM-DCs [1]): − | IL-12 (murine BM-DCs [1]): + | IL-18 (murine BM-DCs [1]): + | TNFα (murine BM-DCs [1]): − | activation of murine BM-DCs (murine BM-DCs [1]; peptides 200 μg/ml, 48 h): activated | secretion of IL-2 (murine BM-DCs [1]; [4]): enhanced secretion | secretion of IL-5 (murine BM-DCs [1]; [4]): enhanced secretion | secretion of IL-12 (p70) (murine BM-DCs [1]; [4]): enhanced secretion | secretion of IL-18 (murine BM-DCs [1]; [4]): enhanced secretion | secretion of IL-10 (murine BM-DCs [1]; [5]): enhanced secretion | T cell stimulatory activity of exposed BM-DCs in mixed lymphocyte reaction (allogeneic T cells): activated resting allogeneic T cells | CD40 expression (murine BM-DCs [2]): strong upregulation | CD86 expression (murine BM-DCs [2]): strong upregulation | MHC-II expression (murine BM-DCs [2]): strong upregulation | activation of human DCs [3, 6]: no effect | IL-6 [3]: − | IL-8 [3]: − | IL-10 [3]: − | IL-12 [3]: − | IL-18 [3]: − | TNFα [3]: −

Substance: SIGDVAKKLGEMWNNTAA (Biotin-SIGDVAKKLGEMWNNTAA; listed as Homo sapiens) [Hp-121, control peptide]
T cell stimulatory activity of exposed BM-DCs in mixed lymphocyte reaction (allogeneic T cells): did not show enhanced T cell stimulatory activity | CD40 expression (murine BM-DCs [2]): No altered expression | CD86 expression (murine BM-DCs [2]): No altered expression | MHC-II expression (murine BM-DCs [2]): No altered expression

CD206 (macrophage mannose receptor) expression (immature DCs; rB box 100 μg/ml): decrease
Substance: recombinant HMGB1: Human recombinant HMGB1 expressed in Escherichia coli; full-length sequence SEQ ID NO:1
CD86 expression (immature DCs): increases | CD40 expression (immature DCs; rB box 100 μg/ml): increases | CD54 expression (immature DCs; rB box 100 μg/ml): increases | CD83 expression (immature DCs; rB box 100 μg/ml): increases | MHCII expression (immature DCs; rB box 100 μg/ml): increases

Substance: HPDASVNFSEFSKKCSER (Biotin-HPDASVNFSEFSKKCSER; listed as Homo sapiens) [Hp-31]
IL-1β (murine BM-DCs [1]): + | IL-2 (murine BM-DCs [1]): + | IL-5 (murine BM-DCs [1]): + | IL-6 (murine BM-DCs [1]): − | IL-10 (murine BM-DCs [1]): − | IL-12 (murine BM-DCs [1]): + | activation of murine BM-DCs (murine BM-DCs [1]; peptides 200 μg/ml, 48 h): activated | secretion of IL-1β (murine BM-DCs [1]; [4]): enhanced the production | secretion of IL-2 (murine BM-DCs [1]; [4]): enhanced the production | secretion of IL-5 (murine BM-DCs [1]; [4]): enhanced the production | secretion of IL-12 (p70) (murine BM-DCs [1]; [4]): enhanced the production | secretion of IL-10 (murine BM-DCs [1]; [5]): not | secretion of IL-6 [3, 6]: induced secretion of IL-6 | secretion of IL-8 [3, 6]: not | secretion of IL-12 (p70) [3, 6]: increased secretion | secretion of IL-18 [3, 6]: increased secretion | secretion of TNF-α [3, 6]: increased secretion | IL-6 [3]: + | IL-8 [3]: − | IL-10 [3]: − | IL-12 [3]: + | IL-18 [3]: + | TNFα [3]: +

Substance: SERWKTMSAKEKGKFEDM (Biotin-SERWKTMSAKEKGKFEDM; listed as Homo sapiens) [Hp-46]
T cell stimulatory activity of exposed BM-DCs in mixed lymphocyte reaction (allogeneic T cells): did not show enhanced T cell stimulatory activity

Substance: CSEYRPKIKGEHPGLSIG [Hp-106 non-bio]
secretion of IL-12 (p70) (murine BM-DCs [1]; [4]): did not enhance IL-12 secretion | secretion of IL-6 [3, 6]: no activity

Substance: DPNAPKRPPSAFFLFCSE (Biotin-DPNAPKRPPSAFFLFCSE; listed as Homo sapiens) [Hp-91]
IL-1β (murine BM-DCs [1]): + | IL-2 (murine BM-DCs [1]): + | IL-5 (murine BM-DCs [1]): + | IL-6 (murine BM-DCs [1]): − | IL-8 (murine BM-DCs [1]): − | IL-10 (murine BM-DCs [1]): − | IL-12 (murine BM-DCs [1]): + | IL-18 (murine BM-DCs [1]): − | TNFα (murine BM-DCs [1]): − | activation of murine BM-DCs (murine BM-DCs [1]; peptides 200 μg/ml, 48 h): activated | secretion of IL-1β (murine BM-DCs [1]; [4]): increased production | secretion of IL-2 (murine BM-DCs [1]; [4]): increased production | secretion of IL-5 (murine BM-DCs [1]; [4]): increased production | secretion of IL-8 (murine BM-DCs [1]; [4]): not | secretion of TNF-α (murine BM-DCs [1]; [4]): not | secretion of IL-6 [3, 6]: enhanced the IL-6 secretion; also recorded: induced IL-6 secretion | secretion of IL-8 [3, 6]: not | secretion of IL-12 (p70) [3, 6]: increased secretion | secretion of IL-18 [3, 6]: increased secretion | secretion of TNF-α [3, 6]: increased secretion | IL-6 [3]: + | IL-8 [3]: − | IL-10 [3]: − | IL-12 [3]: + | IL-18 [3]: + | TNFα [3]: +
